Reference: ChEMBL document CHEMBL5620406, “Synthesis and biological evaluation of novel pyrazole amides as potent mitochondrial complex I inhibitors” (Eur J Med Chem, 2023)
Active and inactive are the calls of the source. No cut-off for these calls is given here.

Key:
Cytochrome P450 2D6 = Cytochrome P450 2D6 (Homo sapiens, UniProt P10635); test: Inhibition of CYP2D6 in human liver microsomes incubated for 20 mins in presence of NADPH by LC/MS/MS analysis; type: ADME, Microsome
NCM460 = test: Antiproliferative activity against human NCM460 cells assessed as inhibition of cell growth incubated for 96 hrs by MTT assay; type: functional, cell-based; settings: NCM460, 96 h
[1] = Inhibition of mitochondrial complex I (unknown origin) incubated for 15 mins by microplate reader analysis; parameters: species or system Homo sapiens
HCT-116 [2] = test: Antiproliferative activity against human HCT-116 cells assessed as inhibition of cell growth incubated for 96 hrs by MTT assay; type: functional, cell-based; settings: HCT-116, 96 h
HCT-116 [3] = test: Antiproliferative activity against human HCT-116 cells assessed as inhibition of cell growth at 0.1 nM incubated for 96 hrs in presence of galactose by MTT assay; type: functional, cell-based
KG-1 [4] = test: Antiproliferative activity against human KG-1 cells assessed as inhibition of cell growth at 0.1 nM incubated for 96 hrs in presence of galactose by MTT assay; type: functional, cell-based
HCT-116 [5] = test: Induction of mitochondrial dysfunction in human HCT-116 cells assessed as attenuation of oxygen consumption rate incubated for 24 hrs by Seahorse XFe24 analyzer; type: functional, cell-based; settings: dose 2-10 nM
HCT-116 [6] = test: Induction of mitochondrial dysfunction in human HCT-116 cells assessed as attenuation of ATP coupling oxygen consumption rate incubated for 24 hrs by Seahorse XFe24 analyzer; type: functional, cell-based; settings: dose 2-10 nM
HCT-116 [7] = test: Induction of mitochondrial dysfunction in human HCT-116 cells assessed as inhibition of OXPHOS at 2 to 10 nM incubated for 24 hrs by Seahorse XFe24 analyzer; type: functional, cell-based; settings: dose 2-10 nM
HCT-116 [8] = test: Induction of ROS generation in human HCT-116 cells at 0.5 nM measured for 30 mins by DCFDA-staining based flow cytometry analysis; type: functional, cell-based
KG-1 [9] = test: Induction of ROS generation in human KG-1 cells at 1 nM measured for 30 mins by DCFDA-staining based flow cytometry analysis; type: functional, cell-based
KG-1 [10] = test: Antitumor activity against human KG-1 cells xenografted in NOD-SCID mouse assessed as tumor growth inhibition at 5 mg/kg, ip qd administered 5 consecutive days per week for 24 days; type: functional; settings: KG-1, 576 h, time 24 day, read-out: TGI
[11] = Acute toxicity in BALB/c mouse assessed as decrease in behavioral activity at 40 mg/kg, ip measured for 24 hrs; type: organism-based; settings: in vivo
[12] = Acute toxicity in BALB/c mouse assessed as decrease in behavioral activity at 68 mg/kg, ip measured for 6 days; type: organism-based; settings: in vivo, 144 h, time 6 day
[13] = Acute toxicity in BALB/c mouse assessed as effect on ALT level at 68 mg/kg, ip measured on day 14; type: organism-based; settings: in vivo, 336 h, time 14 day
[14] = Acute toxicity in BALB/c mouse assessed as effect on AST level at 68 mg/kg, ip measured on day 14; type: organism-based; settings: in vivo, 336 h, time 14 day
[15] = Acute toxicity in BALB/c mouse assessed as effect on TP level at 68 mg/kg, ip measured on day 14; type: organism-based; settings: in vivo, 336 h, time 14 day
[16] = Acute toxicity in BALB/c mouse assessed as effect on ALB level at 68 mg/kg, ip measured on day 14; type: organism-based; settings: in vivo, 336 h, time 14 day
[17] = Acute toxicity in BALB/c mouse assessed as effect on BILT level at 68 mg/kg, ip measured on day 14; type: organism-based; settings: in vivo, 336 h, time 14 day
[18] = Acute toxicity in BALB/c mouse assessed as effect on BUN level at 68 mg/kg, ip measured on day 14; type: organism-based; settings: in vivo, 336 h, time 14 day
[19] = Acute toxicity in BALB/c mouse assessed as effect on WBC level at 68 mg/kg, ip measured on day 14; type: organism-based; settings: in vivo, 336 h, time 14 day
[20] = Acute toxicity in BALB/c mouse assessed as effect on RBC level at 68 mg/kg, ip measured on day 14; type: organism-based, Erythrocyte; settings: in vivo, 336 h, time 14 day
[21] = Acute toxicity in BALB/c mouse assessed as effect on PLT level at 68 mg/kg, ip measured on day 14; type: organism-based; settings: in vivo, 336 h, time 14 day
[22] = Acute toxicity in BALB/c mouse assessed as effect on NEUT level at 68 mg/kg, ip measured on day 14; type: organism-based; settings: in vivo, 336 h, time 14 day
[23] = Acute toxicity in BALB/c mouse assessed as heart damage at 40 to 68 mg/kg, ip measured on day 14 by H and E staining based analysis; type: organism-based; settings: in vivo, 336 h, dose 40-68 mg/kg, time 14 day
[24] = Acute toxicity in BALB/c mouse assessed as spleen damage at 40 to 68 mg/kg, ip measured on day 14 by H and E staining based analysis; type: organism-based; settings: in vivo, 336 h, dose 40-68 mg/kg, time 14 day
[25] = Acute toxicity in BALB/c mouse assessed as lung damage at 40 to 68 mg/kg, ip measured on day 14 by H and E staining based analysis; type: organism-based; settings: in vivo, 336 h, dose 40-68 mg/kg, time 14 day
[26] = Acute toxicity in BALB/c mouse assessed as kidney damage at 40 to 68 mg/kg, ip measured on day 14 by H and E staining based analysis; type: organism-based; settings: in vivo, 336 h, dose 40-68 mg/kg, time 14 day
[27] = Acute toxicity in BALB/c mouse assessed as animal death at 116 mg/kg, ip measured on day 14; type: organism-based; settings: in vivo, time 14 day, read-out: Activity
[28] = Toxicity in NOD-SCID mouse xenografted with human KG-1 cells assessed as effect on ALB level at 5 mg/kg, ip qd administered 5 consecutive days per week for 24 days; type: organism-based; settings: in vivo, 576 h, time 24 day
[29] = Toxicity in NOD-SCID mouse xenografted with human KG-1 cells assessed as effect on ALP level at 5 mg/kg, ip qd administered 5 consecutive days per week for 24 days; type: organism-based; settings: in vivo, 576 h, time 24 day
[30] = Toxicity in NOD-SCID mouse xenografted with human KG-1 cells assessed as effect on AST level at 5 mg/kg, ip qd administered 5 consecutive days per week for 24 days; type: organism-based; settings: in vivo, 576 h, time 24 day
[31] = Toxicity in NOD-SCID mouse xenografted with human KG-1 cells assessed as effect on CHO2 level at 5 mg/kg, ip qd administered 5 consecutive days per week for 24 days; type: organism-based; settings: in vivo, 576 h, time 24 day
[32] = Toxicity in NOD-SCID mouse xenografted with human KG-1 cells assessed as effect on CREA level at 5 mg/kg, ip qd administered 5 consecutive days per week for 24 days; type: organism-based; settings: in vivo, 576 h, time 24 day
[33] = Toxicity in NOD-SCID mouse xenografted with human KG-1 cells assessed as effect on MCV level at 5 mg/kg, ip qd administered 5 consecutive days per week for 24 days; type: organism-based; settings: in vivo, 576 h, time 24 day
[34] = Toxicity in NOD-SCID mouse xenografted with human KG-1 cells assessed as effect on MCH level at 5 mg/kg, ip qd administered 5 consecutive days per week for 24 days; type: organism-based; settings: in vivo, 576 h, time 24 day
[35] = Toxicity in NOD-SCID mouse xenografted with human KG-1 cells assessed as effect on RDV at 5 mg/kg, ip qd administered 5 consecutive days per week for 24 days; type: organism-based; settings: in vivo, 576 h, time 24 day
[36] = Toxicity in NOD-SCID mouse xenografted with human KG-1 cells assessed as effect on heart damage at 5 mg/kg, ip qd administered 5 consecutive days per week for 24 days by H and E staining based analysis; type: organism-based; settings: in vivo, 576 h, time 24 day
[37] = Apparent permeability across basolateral side to apical in human Caco-2 cells incubated for 120 mins by LC-MS/MS analysis; type: ADME, cell-based

Cytochrome P450 2D6, sequence (P10635 whole entry): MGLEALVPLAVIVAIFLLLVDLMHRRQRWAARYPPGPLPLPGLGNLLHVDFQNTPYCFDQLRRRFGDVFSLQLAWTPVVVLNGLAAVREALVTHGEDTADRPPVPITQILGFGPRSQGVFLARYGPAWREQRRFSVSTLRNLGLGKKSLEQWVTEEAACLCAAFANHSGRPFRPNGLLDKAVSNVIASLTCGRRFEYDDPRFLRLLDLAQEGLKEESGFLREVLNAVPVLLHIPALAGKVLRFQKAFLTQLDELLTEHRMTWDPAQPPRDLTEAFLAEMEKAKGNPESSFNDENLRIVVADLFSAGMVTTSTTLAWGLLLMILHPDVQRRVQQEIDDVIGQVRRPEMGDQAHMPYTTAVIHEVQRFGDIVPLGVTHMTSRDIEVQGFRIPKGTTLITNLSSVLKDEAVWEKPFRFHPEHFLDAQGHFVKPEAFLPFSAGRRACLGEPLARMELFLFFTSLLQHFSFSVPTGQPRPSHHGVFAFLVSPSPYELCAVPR

Row | SMILES | IC50 (Cytochrome P450 2D6) | IC50 (NCM460) | IC50 [1] | IC50 (HCT-116 [2]) | Activity (HCT-116 [3]) | Activity (KG-1 [4]) | Activity (HCT-116 [5]) | Activity (HCT-116 [6]) | Activity (HCT-116 [7]) | Activity (HCT-116 [8]) | Activity (KG-1 [9]) | inhibition in vivo at 5 mg/kg (KG-1 [10]) | Activity [11] | Activity [12] | Activity [13] | Activity [14] | Activity [15] | Activity [16] | Activity [17] | Activity [18] | also measured
1 | Cc1cc(C(=O)Nc2ccc(C(F)(F)F)cc2)nn1Cc1cccc(N2CCN(C(=O)C3CC3)CC2)c1 | > 10000 nM | > 1000 nM | 830 nM | 0.52 nM | Active | Active | Dose-Dependent Effect | Dose-Dependent Effect | Active | Active | Active | 65.9% | Non-Toxic | Non-Toxic | Non-Toxic | Non-Toxic | Non-Toxic | Non-Toxic | Non-Toxic | Non-Toxic | Activity [19]: Non-Toxic; Activity [20]: Non-Toxic; Activity [21]: Non-Toxic; Activity [22]: Non-Toxic; Activity [23]: Non-Toxic; Activity [24]: Non-Toxic; Activity [25]: Non-Toxic; Activity [26]: Non-Toxic; mortality at 336 h [27]: 33.3%; Activity [28]: Non-Toxic; Activity [29]: Non-Toxic; Activity [30]: Non-Toxic; Activity [31]: Non-Toxic; Activity [32]: Non-Toxic; Activity [33]: Non-Toxic; Activity [34]: Non-Toxic; Activity [35]: Non-Toxic; Activity [36]: Non-Toxic; Papp B→A at 2 h [37]: 3.08 ×10⁻⁶ cm/s
2 | Cc1cc(C(=O)Nc2ccc(OC(F)(F)F)cc2)nn1Cc1cccc(N2CCN(C(=O)C3CC3)CC2)c1 | > 10000 nM | > 1000 nM | 1140 nM | 1.02 nM | Active | Active | Dose-Dependent Effect | Dose-Dependent Effect | Active | Active | Active | 61.5% | Non-Toxic | Non-Toxic | Non-Toxic | Non-Toxic | Non-Toxic | Non-Toxic | Non-Toxic | Non-Toxic | Activity [19]: Non-Toxic; Activity [20]: Non-Toxic; Activity [21]: Non-Toxic; Activity [22]: Non-Toxic; Activity [23]: Non-Toxic; Activity [24]: Non-Toxic; Activity [25]: Non-Toxic; Activity [26]: Non-Toxic; mortality at 336 h [27]: 33.3%; Activity [28]: Non-Toxic; Activity [29]: Non-Toxic; Activity [30]: Non-Toxic; Activity [31]: Non-Toxic; Activity [32]: Non-Toxic; Activity [33]: Non-Toxic; Activity [34]: Non-Toxic; Activity [35]: Non-Toxic; Activity [36]: Non-Toxic; Papp B→A at 2 h [37]: 3.25 ×10⁻⁶ cm/s
